IC50 and melting point data for 24 molecules are collected here from patent US7495018B2, “Substituted 1,3-thiazole compounds, their production and use” (Takeda Pharmaceutical Company Limited, priority 2000, dated 2009).

T1 sequence (Q16539 whole entry): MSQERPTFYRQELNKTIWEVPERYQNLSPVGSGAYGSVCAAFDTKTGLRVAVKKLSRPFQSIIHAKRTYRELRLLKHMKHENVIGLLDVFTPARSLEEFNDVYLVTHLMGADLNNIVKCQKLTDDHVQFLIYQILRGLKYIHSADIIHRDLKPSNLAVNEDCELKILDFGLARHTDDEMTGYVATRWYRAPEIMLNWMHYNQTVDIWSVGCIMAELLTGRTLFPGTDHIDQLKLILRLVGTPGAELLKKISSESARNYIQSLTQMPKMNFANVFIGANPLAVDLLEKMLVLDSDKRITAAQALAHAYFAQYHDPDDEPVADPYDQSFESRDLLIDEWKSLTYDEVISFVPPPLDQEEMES

The first data set concerns the target T1, human p38 MAP kinase (Homo sapiens, UniProt Q16539).
T1 construct: FLAG (N); made in house; host or cells: Sf-21 insect cells, co-infected with baculoviruses BAC-HP38 and BAC-caMKK3
Put plainly: p38 MAP kinase inhibition, 32P incorporation into Myelin Basic Protein. The conditions noted are these: active type p38 MAP kinase, Myelin Basic Protein substrate, 60 minutes at 30° C.; read-out: IC50 (concentration inhibiting 50% of 32P incorporation into the acid insoluble fraction). In kind it is biochemical. Here is the method:
(1) Cloning of Human p38 MAP Kinase Gene and Preparation of Recombinant Baculovirus
(3) Preparation of Active Type p38 MAP Kinase
Sf-21 cells were inoculated on 100 mL Sf-900II SF medium (GIBCOBRL) to give 1×10^6 cells/mL, then, cultured for 24 hours at 27° C. Each 0.2 mL of virus stocks BAC-HP38 and BAC-caMKK3 of the recombinant baculovirus were added, then, cultured for further 48 hours. Cells were separated from the culture solution by centrifugal separation (3000 rpm, 10 min.), then, washed with PBS twice. The cells were suspended in 10 mL of Lysis buffer (25 mM HEPES (pH7.5), 1% TritonX, 130 mM NaCl, 1 mM EDTA, 1 mM DTT, 25 mM β-glycerophosphate, […], 1 mM APMSF, 1 mM Sodium orthovanadate), then, treatment by Homogenizer (POLYTRON) for 2 minutes at 20000 rpm was performed twice to lyse the cells. […]
(4) To 37.5 μL of a reaction solution (25 mM HEPES (pH 7.5), 10 mM Magnesium Acetate) containing 260 ng of active type p38 MAP kinase and 1 μg of Myelin Basic Protein was added 2.5 μL of a sample compound dissolved in DMSO, then, the mixture was kept at 30° C. for 5 minutes. […] After drying for 60 minutes at 45° C., 40 μL of Microscint 0 (Packard Japan) was added, and radiation activity was measured by Top Counter (Packard Japan). […]
For `Cc1cccc(-c2nc(N(C)C(=O)c3ccc(C)nc3)sc2-c2ccnc(NC3CCCC3)c2)c1` [Example 46-4], the IC50 came to 17 nM.

A further data set has as its system TNF-α production in THP-1 cells. Put plainly: Inhibitory activity of TNF-α production in LPS-stimulated THP-1 cells. The data set is classed as cell-based. The settings on record: Homo sapiens, LPS 5 μg/mL, 4 hours, TNF-α by ELISA, read-out: IC50 (concentration inhibiting 50% of TNF-α production). Here is the method: Measurement of Inhibitory Activity of TNF-α Production
THP-1 cells cultured in a PRMI 1640 medium (Life Technologies, Inc., USA) containing 1% inactivated fetal bovine serum (Life Technologies, Inc.) and 10 mM HEPES (pH 7.5) were inoculated on a 96 well plate to give 1×10^5 cells/well, then, 1 μL of a sample compound dissolved in DMSO was added. After incubation for 1 hour at 37° C. in a CO2 incubator, LPS (Wako Pure Chemical Industries Ltd.) was added to give a final concentration of 5 μg/mL. After incubation for 4 hours at 37° C. in a CO2 incubator, the supernatant was obtained by centrifugal separation. The TNF-α concentration in the supernatant was measured by ELISA (R&D Systems, Quantikine Kit). The concentration (IC50 value) of a sample compound necessary for inhibiting 50% of TNF-α production was calculated by PRISM 2.01 (GraphPad Software).
(An ELISA detects its analyte on a solid surface through an enzyme-linked reagent.)
For the molecule `CCc1nc(-c2cccc(Cl)c2)c(-c2ccnc(NC(C)=O)c2)s1` [Example 30-2, N-[4-[4-(3-chlorophenyl)-2-ethyl-1,3-thiazol-5-yl]-2-pyridyl]acetamide], the IC50 turned out to be 120 nM.
As for `CCc1nc(-c2cccc(Cl)c2)c(-c2ccnc(NC3CCCCC3)c2)s1` [Example 36-10, 4-[4-(3-chlorophenyl)-2-ethyl-1,3-thiazol-5-yl]-N-cyclohexyl-2-pyridylamine], the IC50 is 55 nM.
The same measure, in the same setting: the value for `Cc1cccc(-c2nc(N(C)C(=O)c3ccc(C)nc3)sc2-c2ccnc(NC3CCCC3)c2)c1` [Example 46-4] was 82 nM.
On to `CCC(=O)Nc1cc(-c2sc(-c3ccc(S(C)(=O)=O)cc3)nc2-c2cccc(Cl)c2)ccn1` [Example 58-7, N-[4-[4-(3-chlorophenyl)-2-(4-methylsulfonylphenyl)-1,3-thiazol-5-yl]-2-pyridyl]propionamide], for which the IC50 is 21 nM.

Test system in the next data set: not given
Assay: not given
Details: not given
The melting point is the temperature of the solid-liquid transition. Consider `Cc1cccc(-c2nc(N(C)C(=O)c3ccc(C)nc3)sc2-c2ccnc(NC3CCCC3)c2)c1` [Example 46-4], for which the melting point lay in the range of 176 to 177 °C.
For `Cc1cccc(-c2nc(NC(=O)Nc3ccccc3)sc2-c2ccnc(NC3CCCC3)c2)c1` [Example Compound 53-3, N-[5-(2-cyclopentylamino-4-pyridyl)-4-(3-methylphenyl)-1,3-thiazol-2-yl]-N′-phenylurea], the melting point fell in the range of 188 to 190 °C.
The molecule `Cc1cccc(-c2nc(NC(=O)Nc3ccccc3)sc2-c2ccnc(C)c2)c1` [Example Compound 53-4, N-[4-(3-methylphenyl)-5-(2-methyl-4-pyridyl)-1,3-thiazol-2-yl]-N′-phenylurea] returned a melting point of 168 to 169 °C.
Same read-out and setting: next, `Cc1cc(C)cc(-c2nc(-c3ccc([S+](C)[O-])cc3)sc2-c2ccnc(C)c2)c1` (centres unmarked) [Example Compound 56-1, 4-(3,5-dimethylphenyl)-5-(2-methyl-4-pyridyl)-2-(4-methylsulfinylphenyl)-1,3-thiazole]: 151 to 153 °C; `Cc1cc(C)cc(-c2nc(-c3ccc([S+](C)[O-])cc3)sc2-c2cc(C)nc(C)c2)c1` (centres unmarked) [Example Compound 56-2, 4-(3,5-dimethylphenyl)-5-(2,6-dimethyl-4-pyridyl)-2-(4-methylsulfinylphenyl)-1,3-thiazole]: 151 to 154 °C.
Turning to `Cc1cc(C)cc(-c2nc(-c3ccc(S(C)(=O)=O)cc3)sc2-c2ccnc(C)c2)c1` [Example Compound 58-1, 4-(3,5-dimethylphenyl)-5-(2-methyl-4-pyridyl)-2-(4-methylsulfonylphenyl)-1,3-thiazole], the melting point was in the range of 196 to 197 °C.
`Cc1cccc(-c2nc(-c3ccc(S(C)(=O)=O)cc3)sc2-c2cc(C)nc(C)c2)c1` [Example Compound 58-2, 5-(2,6-dimethyl-4-pyridyl)-4-(3-methylphenyl)-2-(4-methylsulfonylphenyl)-1,3-thiazole]: the melting point is 182 to 184 °C.
In turn, `Cc1cc(C)cc(-c2nc(-c3ccc(S(C)(=O)=O)cc3)sc2-c2cc(C)nc(C)c2)c1` [Example Compound 58-3, 4-(3,5-dimethylphenyl)-5-(2,6-dimethyl-4-pyridyl)-2-(4-methylsulfonylphenyl)-1,3-thiazole] came in with a melting point of 217 to 220 °C.
Regarding `Cc1cccc(-c2nc(-c3ccc(S(C)(=O)=O)cc3)sc2-c2ccnc(F)c2)c1` [Example Compound 58-4, 5-(2-fluoro-4-pyridyl)-4-(3-methylphenyl)-2-(4-methylsulfonylphenyl)-1,3-thiazole], the melting point is 195 to 199 °C.
As for `Cc1cc(-c2sc(-c3ccc(S(C)(=O)=O)cc3)nc2-c2ccc(F)cc2)ccn1` [Example Compound 58-5, 4-(4-fluorophenyl)-5-(2-methyl-4-pyridyl)-2-(4-methylsulfonylphenyl)-1,3-thiazole], the melting point was 190 to 192 °C.
In the case of `CC(=O)Nc1cc(-c2sc(-c3ccc(S(C)(=O)=O)cc3)nc2-c2cccc(Cl)c2)ccn1` [Example Compound 58-6, N-[4-[4-(3-chlorophenyl)-2-(4-methylsulfonylphenyl)-1,3-thiazol-5-yl]-2-pyridyl]acetamide], the melting point was in the range of 216 to 217 °C.
In turn, `CCC(=O)Nc1cc(-c2sc(-c3ccc(S(C)(=O)=O)cc3)nc2-c2cccc(Cl)c2)ccn1` [Example Compound 58-7, N-[4-[4-(3-chlorophenyl)-2-(4-methylsulfonylphenyl)-1,3-thiazol-5-yl]-2-pyridyl]propionamide] showed a melting point of 224 to 225 °C.
In the case of `CC(C)(C)C(=O)Nc1cc(-c2sc(-c3ccc(S(C)(=O)=O)cc3)nc2-c2cccc(Cl)c2)ccn1` [Example Compound 58-8, N-[4-[4-(3-chlorophenyl)-2-(4-methylsulfonylphenyl)-1,3-thiazol-5-yl]-2-pyridyl]pivalamide], the melting point was in the range of 122 to 123 °C.
`Cc1cccc(-c2nc(NC(=O)OCCCl)sc2-c2ccnc(C)c2)c1` [Example Compound 62, 2-chloroethyl[4-(3-methylphenyl)-5-(2-methyl-4-pyridyl)-1,3-thiazol-2-yl]carbamate]: the melting point is 156 to 158 °C.
The molecule `Cc1cccc(-c2nc(NC(=O)NOc3ccccc3)sc2-c2ccnc(C)c2)c1` [Example Compound 64, N-[4-(3-methylphenyl)-5-(2-methyl-4-pyridyl)-1,3-thiazol-2-yl]-N′-phenyloxyurea] gave a melting point of 154 to 155 °C.
In the case of `Cc1cccc(-c2nc(N3CCNC3=O)sc2-c2ccnc(C)c2)c1` [Example Compound 66, 1-[4-(3-methylphenyl)-5-(2-methyl-4-pyridyl)-1,3-thiazol-2-yl]imidazolidin-2-one], the melting point fell in the range of 200 to 201 °C.
Molecule `Cc1cccc(-c2nc(-c3ccc(S(C)(=O)=O)cc3)sc2-c2cc[n+]([O-])c(C)c2)c1` [Example Compound 68-1, 4-[4-(3-methylphenyl)-2-(4-methylsulfonylphenyl)-1,3-thiazol-5-yl]-2-methylpyridine N-oxide] had a melting point of 197 to 198 °C.
`CCc1nc(-c2cccc(Br)c2)c(-c2ccnc(NC(=O)OC(C)(C)C)c2)s1` [Example Compound 75-1, 4-(3-bromophenyl)-5-[2-(tert-butoxycarbonylamino)-4-pyridyl]-2-ethyl-1,3-thiazole] returned a melting point of 172 to 174 °C.
For the molecule `CCc1nc(-c2cccc(Br)c2)c(-c2ccnc(N)c2)s1` [Example Compound 75-2, 4-[4-(3-bromophenyl)-2-ethyl-1,3-thiazol-5-yl]-2-pyridylamine], the melting point was 132 to 134 °C.
`CCc1nc(-c2ccccc2)c(-c2ccnc(NC(=O)OC(C)(C)C)c2)s1` [Example Compound 79-1, 5-[2-(tert-butoxycarbonylamino)-4-pyridyl]-2-ethyl-4-phenyl-1,3-thiazole] displayed a melting point of 154 to 155 °C.
Same read-out and setting: the value for `CCc1nc(-c2ccccc2)c(-c2ccnc(NC(C)=O)c2)s1` [Example Compound 82-1, N-[4-(2-ethyl-4-phenyl-1,3-thiazol-5-yl)-2-pyridyl]acetamide] was 175 to 176 °C.
